{"source": "patent US9017938B2", "about": "“Use of microrna-199b-5p in medical and diagnostic field” (Advanced Accelerator Applications, priority 2009, dated 2015)", "key": {"ONS76 cells": {"system": "ONS76 cells", "assay": "Proliferation assay MTS, ONS76", "format": "cell-based", "conditions": "transient transfection vs mock-transfected cells", "protocol": "Cell proliferation was determined using the CellTiter96 AQueous Non-Radioactive Cell Proliferation Assay Kit (Promega Madison, Wis.). The cells were seeded into 96-well plates at a density of 1×10^3 cells/well in EMEM without or with FBS. After 0, 24, 48 and 72 h, MTS ([3-(4,5-dimethylthiazol-2-yl)-5-(3-carboxymethoxyphenyl)-2-(4-sulfophenyl)-2H-tetrazolium]) and PMS (phenazine methosulfate) were added to each well and after 4 h the absorbance of each well was measured at 490 nm (OD490) using Multilabel counter Victor^3 (Perkin Elmer). Each condition was performed with five wells and each experiment was repeated twice."}, "Daoy cells [1]": {"system": "Daoy cells", "assay": "Soft-agar colony formation assay", "format": "cell-based, human", "conditions": "stable 199bSC1 clone vs empty-vector clone", "protocol": "Daoy cells and the stable 199b clone were seeded in 1 ml EMEM supplemented with 2% FBS, containing 0.3% agarose. Cultures were maintained for two weeks and refreshed with EMEM supplemented with 2% FBS twice per week. Colonies of more than 100 μm in diameter were counted under a Leica (Nussloch, Germany) DC500 compound microscope."}, "CD133+ Daoy cells": {"system": "CD133+ Daoy cells", "assay": "CD133 FACS analysis", "format": "cell-based, human", "protocol": "The flow cytometry analysis of S-phase fractions and cell-cycle kinetics were carried out using a FACSCalibur (Becton Dickinson, San Jose, Calif.) using CELL Quest version 3.3 software. The CD133 studies were carried out using the same instrument, with antibodies from Miltenyi Biotec (Auburn, Calif.), according to the manufacturer instructions. In brief, the cells were blocked in Fc receptor blocking reagent and incubated with an anti-CD133/1 (AC133)-phycoerythrin antibody (Miltenyi Biotec), for 10 min in the dark at 4° C. The cells were then washed and resuspended in PBS. Cells expressing higher levels of CD133 than the immunoglobulin G (IgG) controls were considered positive. For analyses of the side populations, cells […] were incubated with Hoechst 33342 (5 μmol/L; Sigma) for 90 min at 37° C. in EMEM containing 2% FBS. To ensure the correct identification of the side population cells, the cells were incubated as above with the addition of 50 μM verapamil (Sigma)."}, "Daoy cells [2]": {"system": "Daoy cells", "assay": "In-vitro cell-motility assay (Boyden chamber)", "format": "cell-based, human", "conditions": "199bSC1 vs empty vector control, 0.5% FBS chemoattractant", "protocol": "The control DAOY cell line and the stable DAOY-199bSC1 clone were used in the ‘cell-motility’ assays. Cell migration assays were performed with 8-μm pore size Transwells (Costar). The cells were suspended by trypsinization, washed, and resuspended in 100 μl serum-free DMEM containing 0.1% BSA (5×10^4 cells) and placed in the upper chamber of the Transwells. The lower chamber was filled with 600 μl serum-free DMEM supplemented with 0.5% FBS, as the chemo-attractor. The cells were allowed to migrate for 1 h at 37° C. Cells migrating to the lower side of the polycarbonate membrane were fixed with 2.5% glutaraldehyde and stained with Hematoxylin solution (Sigma). The cells were counted, and the analysis performed on three Transwells for each condition, and each experiment was repeated twice."}, "HES1": {"system": "HES1", "assay": "Western blotting of HES1 protein", "format": "cell-based, human", "protocol": "Thirty μg cytosolic or nuclear lysates were loaded onto 12% polyacrilamide gels, and blotted onto polyvinylidene difluoride membranes (PVDF; BioRad, Milan, Italy). The membranes were then incubated with anti-HES1 (kind gift of Dr. Tetsuo Sudo TORAY Industries, Tebiro Kamakura, Japan), a polyclonal rabbit antibody (1:500), an anti-GSK3-β (B&D Bioscience) monoclonal antibody (1:2500), an anti-c-Myc polyclonal rabbit antibody (1:200) (Santa Cruz Biotechnology, Santa Cruz, Calif., USA), an anti-GABRA6 antibody (Santa Cruz Biotechnology, Santa Cruz, USA) (1:200), an anti-MATH3 antibody (Santa Cruz Biotechnology, Santa Cruz, USA) (1:200) and an anti-cyclin D1 (1:200) polyclonal rabbit antibody (Cell Signaling). An anti-β-actin antibody (1:1.000) (Sigma) was used as the control for equal loading of cytosolic lysates and a polyclonal anti-β-laminin antibody (1:50) (Santa Cruz Biotechnology, Santa Cruz, Calif., USA) for equal loading of nuclear lysates."}}}
{"substance": "miR-199b-5p: mature microRNA CCCAGUGUUUAGACUAUCUGUUC (SEQ ID NO:11); over-expressed from pre-miR-199b construct, e.g. stable Daoy clones 199bSC1, 199bMC1 (listed as RNA, chemistry not fully specified)", "values": [{"measurement": "proliferation", "setting": "ONS76 cells", "result": "decreased proliferation"}, {"measurement": "reduction in colony formation potential", "setting": "Daoy cells [1]", "result": 80, "unit": "%"}, {"measurement": "CD133+ cells", "setting": "CD133+ Daoy cells; stable 199bMC1 clone (wild-type cells 14.8%)", "result": 6.5, "unit": "%"}, {"measurement": "CD133+ cells", "setting": "CD133+ Daoy cells; stable 199bSC1 clone (wild-type cells 14.8%)", "result": 2.4, "unit": "%"}, {"measurement": "cell motility", "setting": "Daoy cells [2]", "result": "did not lead to a decrease in cell motility"}, {"measurement": "endogenous HES1 protein level", "setting": "HES1; D283 cells, transient transfection vs empty vector", "result": "lowered the levels of the endogenous HES1 protein"}, {"measurement": "endogenous HES1 protein level", "setting": "HES1; HEK293 cells, transient transfection, 48 h", "result": "lowered the levels of the endogenous HES1 protein"}, {"measurement": "HES1 protein level", "setting": "HES1; stable Daoy clone 199bSC1", "result": "no detectable HES1"}, {"measurement": "HES1 protein level", "setting": "HES1; three stable Daoy clones over-expressing miR-199b-5p", "result": "reduced HES1 protein levels"}]}
